According to patent EP0182135A2, “Novel bis-(substituted amino) anthraquinones” (AMERICAN CYANAMID COMPANY, priority 1984, dated 1986):

Tests used:
[1] = system: lymphocytic leukemia P388; assay: Lymphocytic Leukemia P388 Test; type: in vivo, DBA/2 mice
Description: Lymphocytic Leukemia P388 Test
The animals used were DBA/2 mice all of one sex, weighing a minimum of 17 g and all within a 3 g weight range. There were 5 or 6 animals per test group. The tumor transplant was by intraperitoneal injection of 0.1 ml of dilute ascitic fluid containing 10^6 cells of lymphocytic leukemia P388. The test compounds were administered intraperitoneally on days 1, 5 and 9 (relative to tumor inoculation) at various doses. The animals were weighed and survivors were recorded on a regular basis for 30 days. The median survival time and the ratio of survival time for treated (T)/control (C) animals were calculated. The positive control compound was 1,4-dihydroxy-5,8-bis--[ [2-(2-hydroxyethylamino)ethyl ]amino]anthraquinone, dihydrochloride (U.S. Patent 4,197,249) given at the indicated doses by injection.

melanotic melanoma B16 = assay: Melanotic Melanoma B16 Test; type: in vivo, C57BC/6 mice
Description: The animals used were C57BC/6 mice, all of the same sex, weighing a minimum of 17 g and all within a 3 g weight range. There were normally 10 animals per test group. A 1.0 g portion of melanotic melanoma B16 tumor was homogenized in 10 ml of cold balanced salt solution and a 0.5 ml aliquot of the homogenate was implanted intraperitoneally into each of the test mice. The test compounds were administered intraperitoneally on days one through nine (relative to tumor inoculation) at various doses. The animals were weighed and survivors recorded on a regular basis for 60 days. The median survival time and the ratio of survival time for treated (T)/control (C) animals were calculated. The positive control compound was 1,4-dihydroxy-5,8-bis[[2-(2-hydroxyethylamino)-ethyl]amino]anthraquinone, dihydrochloride (U.S. Patent 4,197,249) given at the indicated doses by injection.

[2] = Dose 0.2 mg/kg intraperitoneally on days 1, 5 and 9
[3] = Dose 0.8 mg/kg intraperitoneally on days 1, 5 and 9
[4] = Dose 3 mg/kg intraperitoneally on days 1, 5 and 9
[5] = Dose 12 mg/kg intraperitoneally on days 1, 5 and 9
[6] = Dose 50 mg/kg intraperitoneally on days 1, 5 and 9
[7] = Dose 1.5 mg/kg intraperitoneally on days one through nine
[8] = Dose 6 mg/kg intraperitoneally on days one through nine
[9] = Dose 25 mg/kg intraperitoneally on days one through nine
[10] = Dose 100 mg/kg intraperitoneally on days one through nine

## CCOC(=O)NCCNc1ccc(NCCNC(=O)OCC)c2c1C(=O)c1c(O)ccc(O)c1C2=O [[(9,10-Dihydro-5,8-dihydroxy-9,10-dioxo-1,4 anthracenediyl)bis(imino-2,1-ethanediyl)]bis-[carbamic acid]diethyl ester]
[1]; [2]
  Median Survival: 11 days
  T/C x 100 (%): 110%
[1]; [3]
  Median Survival: 14 days
  T/C x 100 (%): 140%
[1]; [4]
  Median Survival: 17 days
  T/C x 100 (%): 170%
[1]; [5]
  Median Survival: 21 days
  T/C x 100 (%): 210%
[1]; [6]
  Median Survival: 21.5 days
  T/C x 100 (%): 215%
Melanotic melanoma B16; [7]
  Median Survival: 29.5 days
  T/C x 100 (%): 156%
Melanotic melanoma B16; [8]
  Median Survival: 39.5 days
  T/C x 100 (%): 209%
Melanotic melanoma B16; [9]
  Median Survival: >60 days
  T/C x 100 (%): >317%
Melanotic melanoma B16; [10]
  Median Survival: 38.5 days
  T/C x 100 (%): 204%
